Assay results taken from patent publication US9328374B2, “Selective culture medium and method for detecting carbapenem-resistant bacteria in a test sample” (Institut National de la Sante et de la Recherche Medicale …, priority 2011, dated 2016).

Test system: K. pneumoniae
Assay: MIC of imipenem, ertapenem and meropenem
Type: cell-based, Klebsiella pneumoniae

Measured: MIC

C[C@@H](O)[C@H]1C(=O)N2C(C(=O)O)=C(S[C@@H]3CN[C@H](C(=O)N(C)C)C3)[C@H](C)[C@H]12 [MEM, meropenem]
0.016 µg/mL: K. pneumoniae 0227, SHV-1, non-carbapenemase producer | K. pneumoniae 1025 (CTX-M-14 + TEM-1 + SHV-11) | K. pneumoniae 1025, CTX-M-14 + TEM-1 + SHV-11, non-carbapenemase producer
0.12 µg/mL: K. pneumoniae KDH (DHA-2) | K. pneumoniae KDH, DHA-2, non-carbapenemase producer, overexpressed AmpC | K. pneumoniae KPN (CTX-M-15)
16 µg/mL: K. pneumoniae 588, KPC-2 + TEM-1 + SHV-11 + OXA-9
12 µg/mL: K. pneumoniae HPA, OXA-48 + TEM-1 + CTX-M-15 + OXA-1
0.032 µg/mL: K. pneumoniae 7725 (SHV-1) | K. pneumoniae 7725, SHV-1, non-carbapenemase producer
1 µg/mL: K. pneumoniae 0709121, IMP-1 | K. pneumoniae 0709127, IMP-1 + TEM-1 | K. pneumoniae BEL (OXA-48) | K. pneumoniae BEL, OXA-48 | K. pneumoniae BER (TEM-1 + SHV-28) | K. pneumoniae BER, SHV-28 + TEM-1, non-carbapenemase producer, porin deficiency | K. pneumoniae HOL (OXA-181 + CTX-M-15) | K. pneumoniae HOL, OXA-181 + CTX-M-15 | K. pneumoniae KIE, NDM-1 + SHV-38 + CMY-16 + OXA-10
0.012 µg/mL: K. pneumoniae KPN, CTX-M-15, non-carbapenemase producer
32 µg/mL: K. pneumoniae A28006, KPC-2 + TEM-1 + CTX-M-2 + SHV-11 | K. pneumoniae COL (KPC-2 + TEM-1 + SHV-1 + CTX-M-15) | K. pneumoniae DUW, OXA-48 + TEM-1 + CTX-M-15 + SHV-28
4 µg/mL: K. pneumoniae ALE (CTX-M-15 + SHV-1) | K. pneumoniae ALE, CTX-M-15 + SHV-1, non-carbapenemase producer, porin deficiency | K. pneumoniae BED (CTX-M-15 + TEM-1 + SHV-1; Table 8: SHV-11) | K. pneumoniae BED, CTX-M-15 + TEM-1 + SHV-11, non-carbapenemase producer, porin deficiency | K. pneumoniae COO (CTX-M-15 + SHV28) | K. pneumoniae COO, CTX-M-15 + SHV-28, non-carbapenemase producer, porin deficiency | K. pneumoniae IND (NDM-1 + OXA-1 + CTX-M-15) | K. pneumoniae KI2, NDM-1 + CTX-M-15 + OXA-1
0.25 µg/mL: K. pneumoniae BEN (OXA-48 + TEM-1 + CTX-M-15 + SHV-28) | K. pneumoniae BEN, OXA-48 + TEM-1 + CTX-M-15 + SHV-28 | K. pneumoniae BOU, OXA-48
0.38 µg/mL: K. pneumoniae 648236 (SHV-2a) | K. pneumoniae 648236, SHV-2a, non-carbapenemase producer, porin deficiency | K. pneumoniae AEL, OXA-48 + CTX-M-15 + SHV-28 + OXA-1 | K. pneumoniae AMS (OXA-48 + TEM-1 + CTX-M-15 + OXA-1) | K. pneumoniae AMS, OXA-48 + TEM-1 + CTX-M-15 + OXA-1 | K. pneumoniae BAJ (OXA-48 + TEM-1 + CTX-M-15 + SHV-28) | K. pneumoniae BAJ, OXA-48 + TEM-1 + CTX-M-15 + SHV-28 | K. pneumoniae BEY (OXA-48 + CTX-M-15 + TEM-1) | K. pneumoniae BEY, OXA-48 + TEM-1 + CTX-M-15 | K. pneumoniae DAL (OXA-48 + CTX-M-15 + TEM-1) | K. pneumoniae DAL, OXA-48 + TEM-1 + CTX-M-15 | K. pneumoniae ELK (OXA-48 + TEM-1 + CTX-M-15 + SHV-11) | K. pneumoniae ELK, OXA-48 + TEM-1 + CTX-M-15 + SHV-11 | K. pneumoniae ENN, VIM-1+ SHV-5
3 µg/mL: K. pneumoniae 6642 GEN (NDM-1 + CTX-M-15 + OXA-1 + OXA-10) | K. pneumoniae 6642 GEN, NDM-1 + CTX-M-15 + OXA-1 + OXA-10 | K. pneumoniae LEG (CTX-M-15 + TEM-1 + SHV-12) | K. pneumoniae LEG, CTX-M-15 + TEM-1 + SHV-12, non-carbapenemase producer, porin deficiency
>32 µg/mL: K. pneumoniae 1 OMA (NDM-1 + CTX-M-15 + OXA-1 + OXA-9) | K. pneumoniae 7 AFR (NDM-1 + OXA-1 + CTX-M-15 + CMY-6 + TEM-1) | K. pneumoniae 7AFR, NDM-1 + TEM-1 + CTX-M-15 + CMY-6 + OXA-1 | K. pneumoniae 2303, KPC-2 + SHV-11 | K. pneumoniae 6759 GEN (NDM-1 + CTX-M-15 + OXA-1 + OXA-9 + OXA-10 + CMY16) | K. pneumoniae 6759 GEN, NDM-1 + CTX-M-15 + CMY-16 + OXA-1 + OXA-9 + OXA-10 | K. pneumoniae 0404020, VIM-1+ SHV-5 | K. pneumoniae 0404024, VIM-1 | K. pneumoniae 0511135, VIM-1+ SHV-12 | K. pneumoniae A33504, KPC-2 + TEM-1 + SHV-11 + CTX-M-2 + OXA-9 | K. pneumoniae DIA, OXA-48 + TEM-1b + CTX-M-15 + SHV-11 + OXA-1 | K. pneumoniae FOS (CTX-M-15 + TEM-1 + SHV-11) | K. pneumoniae FOS, CTX-M-15 + TEM-1 + SHV-11, non-carbapenemase producer, porin deficiency | K. pneumoniae LIB (OXA-48)
0.023 µg/mL: K. pneumoniae 1022, SHV-2a + SHV-28, non-carbapenemase producer | K. pneumoniae 10112, CTX-M-15 + TEM-1 + SHV-11, non-carbapenemase producer
0.5 µg/mL: K. pneumoniae BIC (OXA-48) | K. pneumoniae BIC, OXA-48 | K. pneumoniae CHA (OXA-48 + TEM-1) | K. pneumoniae CHA, OXA-48 + TEM-1
2 µg/mL: K. pneumoniae 2 OLA (NDM-1 + OXA-1) | K. pneumoniae 0709124, IMP-1 + TEM-15 | K. pneumoniae 0709125, IMP-1 + TEM-1 + SHV-12 | K. pneumoniae EGY (OXA-48 + CTX-M-15) | K. pneumoniae EGY, OXA-48 + CTX-M-15 | K. pneumoniae KAM, KPC-3 + TEM-1 + SHV-11
1.5 µg/mL: K. pneumoniae GES, KPC-2 + TEM-1 + SHV-11
